In US20220256847A1, “CELL DEATH INHIBITOR AND CELL DEATH INHIBITION METHOD” (UNIVERSITY OF TSUKUBA, priority 2019, published 2022):

Assays:
Assay type in all cases: in vivo
[1] = test system: hFbxw7 protein expressed in the leaves of Nicotiana benthamiana; experiment: hFbxw7 protein expression, Western blotting with anti-FLAG antibody; settings: Example 2: 200 mM spray; 25° C.; three days after agroinfiltration
Text: The soluble protein was extracted from the region where the hFbxw7 protein was expressed in the leaves of each plant three days after agroinfiltration. The prepared soluble protein was then subjected to SDS-PAGE and transferred to a PVDF membrane. As described above, a FLAG tag was attached to the N-terminus of the hFbxw7 protein. Here, the hFbxw7 protein was detected by Western blotting with an anti-FLAG antibody. FIG. 9 is a photograph showing the results of Western blotting. FIG. 9 also illustrates the results of CBB staining. In FIG. 9, “NT” indicates the results of the leaves of Nicotiana benthamiana without gene introduction, and “FW” indicates fresh weight. In addition, “Mock” indicates the result of not spraying an aqueous solution of sodium ascorbate, and “AsA” indicates the result of spraying a 200 mM aqueous solution of sodium ascorbate. In addition, the band indicated by the arrowhead indicates the band of the hFbxw7 protein. In addition, “RbcL” indicates the Rubisco large subunit.

[2] = test system: leaves of Nicotiana benthamiana; experiment: Observation of gangrene (cell death induced by transient protein expression) in leaves after agroinfiltration and spraying of the substance
Procedure: Nicotiana benthamiana was grown for 5 to 6 weeks under conditions of 25° C. and 16 hours in light and 8 hours in the dark. Each of the above-described vectors was introduced into an Agrobacterium tumefaciens GV3101 strain having a binary vector, and it was cultured at 28° C. until the stationary phase in L broth medium supplemented with 20 μM acetosyringone, 50 mg/L kanamycin, 30 mg/L gentamicin, and 30 mg/L rifampicin at 10 mM MES (pH 5.6).
Then, the culture solution was centrifuged to recover the Agrobacterium tumefaciens, and then suspended such that OD600 was approximately 1 by using an infiltration buffer (10 mM magnesium chloride, 10 mM MES, (pH 5.6), and 100 μM acetosyringone). The Agrobacterium tumefaciens was then left in this liquid for 2 to 3 hours.
After this, the suspension of Agrobacterium tumefaciens was infiltrated on the underside of the leaves of Nicotiana benthamiana by using a 1 mL syringe without a needle. Alternatively, in some cases, Nicotiana benthamiana was immersed in the Agrobacterium suspension (agroinfiltration liquid), and vacuum infiltrated by leaving it under a pressure of 736 mmHg for 5 minutes, and then bringing the pressure back to atmospheric pressure.
In addition, in some experiments, sodium ascorbate was added to the infiltration buffer. Expression induction of heat shock protein was performed by incubating the plant for 1 hour at 37° C. one day and three days after the infiltration. In the following Example, sodium L-ascorbate was used as sodium ascorbate.
Agroinfiltration using a syringe was performed to express GFP, hCu1, hFbxw7, PLP-GFP, and Cryj1 in the leaves of Nicotiana benthamiana. In the expression of PLP-GFP, a 1/100 amount of pBYR2HS-EGFP was simultaneously agroinfitrated. Each plant was cultured at 18° C. for seven days after agroinfiltration. In addition, 0, 30, 50, 100, 200, and 300 mM aqueous solutions of sodium ascorbate were sprayed once every two days.
The scale bar indicates 1 cm. […] In (a) to (f), the region surrounded by the dotted circle is a region expressing GFP, hCu1, hFbxw7, PLP-GFP, and Cryj1, respectively.
Agroinfiltration using a syringe was performed to express each of GFP, hCu1, and hFbxw7 in the leaves of Nicotiana benthamiana. Each plant was cultured at 25° C. for seven days after agroinfiltration. In addition, a 0 or 200 mM aqueous solution of sodium ascorbate was sprayed once every two days. The present Example was mainly different from Example 1 in the growth temperatures of the plant.
The scale bar indicates 1 cm.
Each plant was cultured at 18° C. for seven days after agroinfiltration.
Specifically, Nicotiana benthamiana was immersed in the agroinfiltration liquid, and vacuum infiltrated by leaving it under a pressure of 736 mmHg for 5 minutes, and then bringing the pressure back to atmospheric pressure, and thus the hFbxw7 protein was expressed. Each plant was cultured at 20° C. for seven days after agroinfiltration. In addition, 1 mM of each endoplasmic reticulum stress inhibitor was sprayed one day and three days after agroinfiltration.

Nicotiana benthamiana = experiment: Observation of gangrene after adding the substance to the agroinfiltration liquid (vacuum infiltration); settings: hCu1, 25° C., seven days
Procedure: (§1) Sodium ascorbate was added to the agroinfiltration liquid to examine whether gangrene can be inhibited. Specifically, Nicotiana benthamiana was immersed in the agroinfiltration liquid, and vacuum infiltrated by leaving it under a pressure of 736 mmHg for 5 minutes, and then bringing the pressure back to atmospheric pressure, and thus the hCu1 protein was expressed. Here, sodium ascorbate having a final concentration of 80 mM, 100 mM, or 200 mM was added to the agroinfiltration liquid. Each plant was cultured at 25° C. for seven days after agroinfiltration.
In (a) to (c), “vacuum” indicates the results of vacuum infiltration.
as §1, with “0, 10, 20, 30,” for “80 mM, 100 mM,”, “40” for “200”, “liquid.” for “liquid. Each plant was cultured at 25° C. for seven days after agroinfiltration.”
Sodium ascorbate was administered only once at the time of agroinfiltration. […]

[3] = test system: GFP protein expressed in the leaves of Nicotiana benthamiana; experiment: GFP protein expression level, SDS-PAGE and CBB staining of soluble leaf protein
[4] = test system: hCu1 protein expressed in the leaves of Nicotiana benthamiana; experiment: hCu1 protein expression level, Western blotting with anti-FLAG antibody
Text: (§2) The soluble protein was then extracted from the region where the hCu1 protein was expressed in the leaves of each plant. The prepared soluble protein was then subjected to SDS-PAGE and transferred to a PVDF membrane. As described above, a FLAG tag was attached to the N-terminus of the hCu1 protein. Here, the hCu1 protein was detected by Western blotting with an anti-FLAG antibody.
FIG. 4A is a photograph showing the results of Western blotting. In FIG. 4A, “NT” indicates the results of the leaves of Nicotiana benthamiana without gene introduction, and “FW” indicates fresh weight. In FIG. 4A, the band indicated by the arrowhead indicates the band of the hCu1 protein. FIG. 4B is a graph showing the results of quantifying the expression level of the hCu1 protein based on FIG. 4A. […]
as §2, with “the” for “the region where the hCu1 protein was expressed in the”, “plant seven days after agroinfiltration.” for “plant.”
FIG. 13A is a photograph showing the results of Western blotting, and also illustrates the results of CBB staining. In FIG. 13A, “NT” indicates the results of the leaves of Nicotiana benthamiana without gene introduction, and “FW” indicates fresh weight. In addition, “vacuum” indicates the result of performing the vacuum infiltration, and “spray” indicates the result of spraying an aqueous solution of sodium ascorbate without adding sodium ascorbate to the agroinfiltration liquid. In addition, the band indicated by the arrowhead indicates the band of the hCu1 protein. In addition, “RbcL” indicates the Rubisco large subunit.
FIG. 13B is a graph showing the results of quantifying the expression level of the hCu1 protein based on FIG. 13A. In FIG. 13B, “vacuum” and “spray” indicate the same meaning as those in FIG. 13A.

[5] = test system: Cryj1 protein expressed in the leaves of Nicotiana benthamiana; experiment: Cryj1 protein expression, Western blotting with anti-Cryj1 antibody; settings: Example 8: 200 mM spray once every two days; vacuum infiltration; 24° C. or 20° C., seven days
Procedure: Nicotiana benthamiana was immersed in the agroinfiltration liquid, and vacuum infiltrated by leaving it under a pressure of 736 mmHg for 5 minutes, and then by bringing the pressure back to atmospheric pressure, and thus the Cryj1 protein was expressed. Each plant was cultured at 24° C. or 20° C. for seven days after agroinfiltration. In addition, a 0 mM or 200 mM aqueous solution of sodium ascorbate was sprayed once every two days.
The soluble protein was then extracted from the leaves of each plant seven days after agroinfiltration. The prepared soluble protein was then subjected to SDS-PAGE and transferred to a PVDF membrane. Then, the Cryj1 protein was detected by Western blotting with an anti-Cryj1 antibody.
FIG. 18A is a photograph showing the results of Western blotting. In FIG. 18B, “P” indicates the result of SDS-PAGE and Western blotting of the Cryj1 protein derived from a natural product as a positive control, “M” indicates a molecular weight marker, “WT” indicates the result of the leaves of Nicotiana benthamiana without gene introduction, “24° C.” indicates the result of culturing at 24° C., “20° C.” indicates the result of culturing at 20° C., and “+AsA” indicates the result of spraying a 200 mM aqueous solution of sodium ascorbate once every two days.

[6] = test system: PLP-GFP protein expressed in the leaves of Nicotiana benthamiana; experiment: PLP-GFP protein expression level, Western blotting with anti-GFP antibody; settings: Example 1: spray, concentration of 100 mM or higher, once every two days; 18° C., seven days
Procedure: The soluble protein was then extracted from the region where the PLP-GFP protein was expressed in the leaves of each plant. The prepared soluble protein was then subjected to SDS-PAGE and transferred to a PVDF membrane. For comparison, 100 ng, 200 ng, and 300 ng of purified GFP proteins were also subjected to SDS-PAGE and transferred to a PVDF membrane. Then, the PLP-GFP protein was detected by Western blotting with an anti-GFP antibody. FIG. 5A is a photograph showing the results of Western blotting. In FIG. 5A, “NT” indicates the results of the leaves of Nicotiana benthamiana without gene introduction, and “FW” indicates fresh weight. In FIG. 5A, the band indicated by the arrowhead indicates the band of the PLP-GFP protein. In addition, the band near 30 kDa is the band of the GFP protein. FIG. 5B is a graph showing the results of quantifying an expression level of the PLP-GFP protein based on FIG. 5A.

[7] = Example 1: spray, concentration of 100 mM or higher, once every two days, 18° C., seven days

Row | Structure (SMILES) | expression of the hFbxw7 protein [1] | gangrene (cell death induced by transient protein expression) ([2]; Example 1: sprayed with 100, 200 and 300 mM aqueous solutions once every two days, 18° C., seven days after agroinfiltration, hCu1, hFbxw7, PLP-GFP, Cryj1 regions) | gangrene ([2]; Example 2: 200 mM spray once every two days, 25° C., seven days after agroinfiltration, GFP, hCu1, hFbxw7) | gangrene in GFP-expressing leaves ([2]; Example 2: 200 mM spray, 25° C., culturing continued for seven days after agroinfiltration) | gangrene induced by the substance (Nicotiana benthamiana; Example 3: concentration of 80 mM or higher (80, 100, 200 mM) added to the agroinfiltration liquid) | gangrene of the plant (Nicotiana benthamiana; Example 4: added to the agroinfiltration liquid (0-40 mM), once) | expression level of the GFP protein [3, 7] | expression level of the Rubisco large subunit [3, 7] | GFP protein expression level ([3]; Example 2: 200 mM spray, 25° C., three, five and seven days after agroinfiltration) | expression level of the hCu1 protein [4, 7] | peak in the expression level of the hCu1 protein ([4]; Example 1: spray, concentration of 200 mM or higher, 18° C., seven days) | expression of the hCu1 protein ([4]; Example 2: 200 mM spray, 25° C., seven days after agroinfiltration) | expression level of the hCu1 protein, time of peak ([4]; Example 2: 200 mM spray, 25° C., three days after agroinfiltration) | expression of the hCu1 protein ([4]; Example 4: final concentration of 40 mM added to the agroinfiltration liquid, once, vacuum infiltration, 25° C., seven days) | expression of Cryj1 protein [5] | expression level of the PLP-GFP protein [6] | cell death induced by transient protein expression ([2]; Example 5: spray 30-300 mM once every two days, 18° C., seven days) | state of the leaves ([2]; Example 5: spray, concentration of 100 mM or higher, once every two days, 18° C., seven days)
1 | O=C1O[C@H]([C@@H](O)CO)C([O-])=C1O.[Na+] [sodium ascorbate, sodium L-ascorbate] | expression of the hFbxw7 protein was observed | gangrene was inhibited | tendency of gangrene suppression | tendency of gangrene reduction | gangrene possibly caused by osmotic stress was induced | reduce gangrene of the plant | increase in expression level of the GFP protein | increase in expression level of the Rubisco large subunit | GFP protein expression level sustenance | increase in expression level of the hCu1 protein | peak in the expression level of the hCu1 protein was observed | expression of the hCu1 protein was maintained even seven days after agroinfiltration | peak in the expression level of the hCu1 protein was observed three days after agroinfiltration | expression of the hCu1 protein similar to a case where a 200 mM aqueous solution of sodium ascorbate was sprayed | expression of Cryj1 protein was observed | increase in expression level of the PLP-GFP protein |  | 
2 | O=C([O-])CC(O)(CC(=O)[O-])C(=O)[O-].[Na+].[Na+].[Na+] [sodium citrate, reference compound] |  |  |  |  |  |  |  |  |  |  |  |  |  |  |  |  | cannot inhibit cell death induced by transient protein expression | leaves were in a wilted state
